Test results reported in BindingDB's records for doi:10.1016/j.ejmech.2021.113695 (Griffith University, 2021).
pEC50: −log10 of the molar value.

Assay: Inhibition of NS2B-NS3 intramolecular cleavage in Dengue virus 2 infected in LLC-MK2 cells assessed as inhibition of viral replication measured afer 48 hrs by ELISA

Work on `O=C1c2c(O)ccc([N+](=O)[O-])c2C(=O)c2c([N+](=O)[O-])ccc(O)c21` yielded a pEC50 of 5.38.
